Experimental data: PMC7044277 (Nature Communications, 2020)
“And” between values parts separate entries of the source, which are not always exact repeats. Equal values may be shown once.

Key:
Assay type in all cases: cell-based
320 non-olfactory GPCRs [1] = target: T1, 320 non-olfactory GPCRs (Homo sapiens, UniProt Q15391); conditions: receptor P2RY14; replicate values, Fig_4g
T1 construct: expressed in transfected cells; host or cells: HTLA cells

320 non-olfactory GPCRs [2] = target: 320 non-olfactory GPCRs (Homo sapiens, UniProt P21462)
Chain of 320 non-olfactory GPCRs (Homo sapiens, UniProt P21462) (P21462 whole entry): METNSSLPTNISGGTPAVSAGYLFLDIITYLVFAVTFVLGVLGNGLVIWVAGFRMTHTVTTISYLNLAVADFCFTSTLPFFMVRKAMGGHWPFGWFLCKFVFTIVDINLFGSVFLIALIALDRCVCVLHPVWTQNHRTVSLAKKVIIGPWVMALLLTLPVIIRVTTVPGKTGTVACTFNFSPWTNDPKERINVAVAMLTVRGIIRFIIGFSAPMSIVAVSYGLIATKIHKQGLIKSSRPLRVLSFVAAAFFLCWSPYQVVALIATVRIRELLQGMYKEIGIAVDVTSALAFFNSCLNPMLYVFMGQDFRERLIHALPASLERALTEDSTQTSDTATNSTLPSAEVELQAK

320 non-olfactory GPCRs [3] = target: T2, 320 non-olfactory GPCRs (Homo sapiens, UniProt P41231); conditions: receptor P2RY2; replicate values, Fig_4g
T2 construct: expressed in transfected cells; host or cells: HTLA cells
T2 sequence (P41231 whole entry): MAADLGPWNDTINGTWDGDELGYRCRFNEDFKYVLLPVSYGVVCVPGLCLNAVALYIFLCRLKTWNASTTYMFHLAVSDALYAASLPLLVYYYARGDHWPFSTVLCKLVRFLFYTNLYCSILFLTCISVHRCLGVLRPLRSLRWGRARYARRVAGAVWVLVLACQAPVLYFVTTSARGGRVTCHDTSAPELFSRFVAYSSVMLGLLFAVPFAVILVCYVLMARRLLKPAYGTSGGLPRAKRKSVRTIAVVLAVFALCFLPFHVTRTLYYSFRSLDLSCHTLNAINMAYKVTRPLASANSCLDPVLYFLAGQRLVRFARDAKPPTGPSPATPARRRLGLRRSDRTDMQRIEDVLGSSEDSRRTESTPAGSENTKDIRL

320 non-olfactory GPCRs [4] = target: T3, 320 non-olfactory GPCRs (Homo sapiens, UniProt Q86VZ1); conditions: receptor P2RY8; replicate values, Fig_4g
T3 construct: expressed in transfected cells; host or cells: HTLA cells
T3 sequence (Q86VZ1 whole entry): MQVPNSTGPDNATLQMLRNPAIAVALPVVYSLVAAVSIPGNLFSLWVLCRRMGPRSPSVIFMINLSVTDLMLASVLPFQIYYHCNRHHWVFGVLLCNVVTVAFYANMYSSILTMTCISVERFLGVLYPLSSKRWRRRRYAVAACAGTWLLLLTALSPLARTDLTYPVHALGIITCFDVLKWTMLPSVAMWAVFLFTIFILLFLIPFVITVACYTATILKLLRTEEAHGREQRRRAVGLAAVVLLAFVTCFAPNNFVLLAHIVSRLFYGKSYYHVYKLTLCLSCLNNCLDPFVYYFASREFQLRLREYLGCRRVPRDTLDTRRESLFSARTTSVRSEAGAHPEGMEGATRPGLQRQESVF
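For Fold of Basal in this document: compound tested at 1 µM final concentration.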
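For GPCRome agonism screen response in this document: fold over basal response of each receptor without drug.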

T1 sequence (Q15391 whole entry): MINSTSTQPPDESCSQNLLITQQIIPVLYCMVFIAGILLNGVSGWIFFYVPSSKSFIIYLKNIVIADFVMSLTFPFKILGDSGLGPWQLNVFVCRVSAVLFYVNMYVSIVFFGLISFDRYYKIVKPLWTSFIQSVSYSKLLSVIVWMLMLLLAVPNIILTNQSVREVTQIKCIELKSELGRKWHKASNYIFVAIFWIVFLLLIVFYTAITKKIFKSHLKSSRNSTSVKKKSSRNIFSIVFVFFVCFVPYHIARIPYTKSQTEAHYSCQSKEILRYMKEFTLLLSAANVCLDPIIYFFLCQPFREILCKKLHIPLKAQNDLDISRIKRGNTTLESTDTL

CCOc1cccc2cc(C(C)NCC3(O)CCCCC3)oc12 (stereo not shown) [O4LE6] was tested, and the “GPCRome agonism screen response” value (320 non-olfactory GPCRs [1]) was 0.8976 and 0.7161 and 0.7434 and 0.9997, the “Fold of Basal” value (320 non-olfactory GPCRs [2]) was 0.6589 and 0.3791 and 0.4925 and 0.3481 and the “GPCRome agonism screen response” value (320 non-olfactory GPCRs [3]) was 1.397 and 0.7849 and 2.272 and 0.7466. The “GPCRome agonism screen response” value (320 non-olfactory GPCRs [4]) was 0.862 and 0.8339 and 1.83 and 1.383.
